The subject of data set [1] is mouse peritoneal macrophages. Kind of data set: Suppression of foaming of macrophages (cholesterol ester synthesis) in vitro. The format is cell-based, mouse (female ICR). Particulars: for activity at 5 µM: Mus musculus, Peritoneal macrophage, 16 hours, relative to control as 100%, smaller value = more potent suppression, read-out: Rate of CE synthesis (%). As for the experimental part: Activity of the compounds of the present invention for suppressing the foaming of macrophages
(§1) Activity of the compounds of the present invention for suppressing the foaming of macrophages, which triggers arterial sclerosis, was examined by an in vitro experiment using mouse peritoneal macrophages. 15-Week old female ICR mice (Nippon SLC) were subjected to bleeding by cutting off their cervicalis, and Hanks buffer (Nippon Seiyaku) was injected into their peritoneal cavities. After abdominal regions of the mice were massaged, the buffer was recovered immediately, and then the resulting buffer was centrifuged at 1,000 r.p.m. for five minutes to collect peritoneal macrophages. Then, the collected macrophages were suspended in GTI medium (Wako Pure Chemical Industries), and inoculated onto a 24-well microtiter plate. After the macrophages were cultivated at 37° C. under 5% CO2 for two hours, the culture medium was changed with Dulbecco Modified Eagle Medium (MEM, Nippon Seiyaku). The macrophages were further cultivated at 37° C. under 5% CO2 for 16 hours, and then a test compound and liposomes were added to the culture.
1) Test compound: dissolved in DMSO (Wako Pure Chemical Industries),
PC: Phosphatidylcholine (Funakoshi);
PS: Phosphatidylserine (Funakoshi);
DCP: Dicetylphosphate (Funakoshi);
CHOL: Cholesterol (Sigma)
(§2) After cultivation was further continued at 37° C. under 5% CO2 for 16 hours, lipid fraction was extracted with chloroform and methanol. The extracted lipid fraction was dissolved in isopropyl alcohol, and the produced cholesterol ester (CE) was quantified by an enzymatic luminescence method. Yield of the cholesterol ester was calculated as a relative ratio based on yield of the control as 100% where no test compound was added. Cytotoxicity was examined microscopically by observing morphological alteration of cells. In the tables, compound numbers correspond to those of the compounds of present invention described in the examples.

In data set [2] the test system is mouse peritoneal macrophages. Kind of data set: Cytotoxicity examined microscopically (morphological alteration of cells). The following applies: 5 μM, observed microscopically. It counts as cell-based, mouse (female ICR). The protocol: as §1, §2

Experimental findings from patent US6174907A, “Benzimidazole compounds containing 1,2,4-triazole ring, and compositions and methods of use containing the same” (Fuji Photo Film Co., Ltd., priority 1995, dated 2001) are described below.

Where two headings read alike, the source gives them in different places.

On to `c1ccc(-n2cnnc2SCCCCCSc2nc3ccccc3[nH]2)cc1` [Compound B7], for which, in data set [1] (Table 4), the activity at 5 µM worked out at 21%. For the same molecule, in data set [2] (Table 4), the Cytotoxicity entry is “Not observed”.

On to `Cc1ccc2[nH]c(SCCOCCSc3nc4ccccc4[nH]3)nc2c1` [Compound A21], for which the activity at 5 µM in data set [1] (Table 3) is 24%. In data set [2] (Table 3), the Cytotoxicity result is “Not observed”.

Turning to `Cc1ccc2[nH]c(SCCCCCCCCSc3nc4ccccc4[nH]3)nc2c1` [Compound A20, 1-(2'-(5'-methylbenzimidazolyl)thio)-8-(2"-benzimidazolylthio)octane], the activity at 5 µM in data set [1] (Table 3) worked out at 61%. For the same molecule, the Cytotoxicity result in data set [2] (Table 3) is given as “Not observed”.

As to `c1ccc2[nH]c(SCCCCCSC3=NCCCN3)nc2c1` [Compound B54], the activity at 5 µM in data set [1] (Table 4) stood at 24%. Also, the Cytotoxicity entry in data set [2] (Table 4) is “Not observed”.

For the molecule `c1ccc(SCCCCCCCc2nc3ccccc3[nH]2)nc1` [Compound B47], the activity at 5 µM in data set [1] (Table 4) came out at 23%. In addition, in data set [2] (Table 4), the Cytotoxicity entry was “Not observed”.

Take `Cn1cnnc1SCCCCCSc1nc2ccccc2[nH]1` [Compound B6]: the activity at 5 µM in data set [1] (Table 4) came to 22%. In addition, the Cytotoxicity entry in data set [2] (Table 4) is reported as “Not observed”.

Take `Cc1ccc2[nH]c(SCCCCCSc3nc4cc(Cl)c(Cl)cc4[nH]3)nc2c1` [Compound A14, 1-(2'-(5',6'-dichlorobenzimidazolyl)thio)-5-(2"-(5"-methylbenzimidazolyl)thio)pentane]: the activity at 5 µM in data set [1] (Table 3) stood at 42%. In addition, the Cytotoxicity entry in data set [2] (Table 3) is given as “Not observed”.

On to `Cc1nnc(SCCCCCSc2nc3ccccc3[nH]2)o1` [Compound B25], for which the activity at 5 µM in data set [1] (Table 4) amounted to 41%. For the same molecule, the Cytotoxicity result in data set [2] (Table 4) is recorded as “Not observed”.

`[O-][n+]1ccccc1SCCCCCSc1nc2ccccc2[nH]1` [Compound B40]: the activity at 5 µM in data set [1] (Table 4) worked out at 25%. Moreover, the Cytotoxicity result in data set [2] (Table 4) is “Not observed”.

On to `N#Cc1ccc2[nH]c(SCCCCCSc3nc4ccccc4[nH]3)nc2c1` [Compound A17, 1-(2'-(5'-cyanobenzimidazolyl)thio)-5-(2"-benzimidazolylthio)pentane], for which the activity at 5 µM in data set [1] (Table 3) is 24%. Further, the Cytotoxicity entry in data set [2] (Table 3) is listed as “Not observed”.

In the case of `Clc1cc2nc(SCCCCCSc3nc4ccccc4[nH]3)[nH]c2cc1Cl` [Compound A11, 1-(2'-(5',6'-dichlorobenzimidazolyl)thio)-5-(2"-benzimidazolylthio)pentane], the activity at 5 µM in data set [1] (Table 3) is 9%. Besides, the Cytotoxicity result in data set [2] (Table 3) is recorded as “Not observed”.

Turning to `c1ccc2[nH]c(SCCCCCSc3nnc(-c4ccncc4)o3)nc2c1` [Compound B24], the activity at 5 µM in data set [1] (Table 4) is 9.5%. The Cytotoxicity entry in data set [2] (Table 4) is reported as “Not observed”.

In the case of `O=[N+]([O-])c1ccnc(SCCCCCSc2nc3ccccc3[nH]2)c1` [Compound B42], in data set [1] (Table 4), the activity at 5 µM turned out to be 12%. Besides, the Cytotoxicity entry in data set [2] (Table 4) is on record as “Not observed”.

`Cc1cc2nc(SCCCCCSc3nc4ccccc4[nH]3)[nH]c2cc1C` [Compound A10, 1-(2'-(5',6'-dimethylbenzimidazolyl)thio)-5-(2"-benzimidazolylthio)pentane]: the activity at 5 µM in data set [1] (Table 3) worked out at 20%. The Cytotoxicity result in data set [2] (Table 3) is on record as “Not observed”.

Turning to `Clc1ccc2[nH]c(SCCCCCSc3nc4ccccc4[nH]3)nc2c1` [Compound A2, 1-(2'-(5'-chlorobenzimidazolyl)thio)-5-(2"-benzimidazolylthio)pentane], the activity at 5 µM in data set [1] (Table 3) is 52%. Also, the Cytotoxicity entry in data set [2] (Table 3) is recorded as “Not observed”.

Consider `c1ccc(SCCOCCSc2nc3ccccc3[nH]2)nc1` [Compound B67], for which the activity at 5 µM in data set [1] (Table 4) amounted to 54%. The Cytotoxicity result in data set [2] (Table 4) is on record as “Not observed”.

As to `c1ccc(-c2nc(SCSc3nc4ccccc4[nH]3)[nH]c2-c2ccccc2)cc1` [Control Compound, reference compound], in data set [1], the “Activity for suppressing the foaming of macrophages (in words)” value is recorded as “did not exhibit activity for suppressing the foaming of macrophages”. The activity at 5 µM in data set [1] (Table 4) came to 102%. In addition, the Cytotoxicity entry in data set [2] (Table 4) is given as “Not observed”.

On to `c1cnc2c(SCCCCCSc3nc4ccccc4[nH]3)cccc2c1` [Compound B62], for which the activity at 5 µM in data set [1] (Table 4) came to 25%. Further, the Cytotoxicity result in data set [2] (Table 4) was “Not observed”.

Consider `Cc1nnc(SCCCCCSc2nc3ccccc3[nH]2)n1C` [Compound B8], for which, in data set [1] (Table 4), the activity at 5 µM was 24%. For the same molecule, in data set [2] (Table 4), the Cytotoxicity entry is reported as “Not observed”.

Turning to `c1ccc2[nH]c(SCCCCCSc3ncnc4cn[nH]c34)nc2c1` [Compound B60], in data set [1] (Table 4), the activity at 5 µM is 14%. The Cytotoxicity entry in data set [2] (Table 4) was “Not observed”.

`CC1(C)COC(SCCCCCSc2nc3ccccc3[nH]2)=N1` [Compound B23]: the activity at 5 µM in data set [1] (Table 4) worked out at 38%. Besides, the Cytotoxicity entry in data set [2] (Table 4) was “Not observed”.

Regarding `S=c1sc(SCCCCCSc2nc3ccccc3[nH]2)nn1-c1ccccc1` [Compound B22], in data set [1] (Table 4), the activity at 5 µM is 21%. For the same molecule, the Cytotoxicity entry in data set [2] (Table 4) is listed as “Not observed”.

For the molecule `c1ccc2[nH]c(CCCCCSc3nc4ccccc4[nH]3)nc2c1` [Compound A27, 2-(5-(2'-benzimidazolylthio)pentyl)benzimidazole], the activity at 5 µM in data set [1] (Table 3) amounted to 48%. For the same molecule, the Cytotoxicity entry in data set [2] (Table 3) is “Not observed”.

For `CCC(=O)Nc1ccc2[nH]c(SCCCCCSc3nc4ccccc4[nH]3)nc2c1` [Compound A8, 1-(2'-benzimidazolylthio)-5-(2"-(5"-propionylaminobenzimidazolyl)thio)pentane], in data set [1] (Table 3), the activity at 5 µM came out at 24%. Moreover, in data set [2] (Table 3), the Cytotoxicity entry is “Not observed”.

Regarding `CN(C)C(=O)c1nnc(SCCCCCSc2nc3ccccc3[nH]2)s1` [Compound B18], the activity at 5 µM in data set [1] (Table 4) came to 35%. Further, the Cytotoxicity result in data set [2] (Table 4) is recorded as “Not observed”.

For `Oc1cc(SCCCCCSc2nc3cc(Cl)c(Cl)cc3[nH]2)nc2ccccc12` [Compound B58], the activity at 5 µM in data set [1] (Table 4) was determined as 18%. In addition, in data set [2] (Table 4), the Cytotoxicity result is reported as “Not observed”.

Consider `CCC(=O)n1c(SCCCCCSc2nc3cc(S(=O)(=O)NC)ccc3n2C)nc2ccccc21` [Compound A25], for which the activity at 5 µM in data set [1] (Table 3) was 32%. The Cytotoxicity entry in data set [2] (Table 3) is “Not observed”.

For `Oc1ccc2[nH]c(SCCCCCSc3nc4ccccc4[nH]3)nc2c1` [Compound A6, 1-(2'-benzimidazolylthio)-5-(2"-(5"-hydroxybenzimidazolyl)thio)pentane], in data set [1] (Table 3), the activity at 5 µM was 46%. For the same molecule, the Cytotoxicity result in data set [2] (Table 3) is recorded as “Not observed”.

Consider `CCCc1cc(SCCCCCSc2nc3ccccc3[nH]2)n2ncnc2n1` [Compound B61], for which the activity at 5 µM in data set [1] (Table 4) is 12%. Further, in data set [2] (Table 4), the Cytotoxicity entry is “Not observed”.

With `Cc1cc2nc(SCCCCCSc3ccccn3)[nH]c2cc1C` [Compound B33], the activity at 5 µM in data set [1] (Table 4) is 18%. Besides, the Cytotoxicity result in data set [2] (Table 4) was “Not observed”.

As to `COc1ccc2[nH]c(SCCCCCSc3nc4ccccc4[nH]3)nc2c1` [Compound A5, 1-(2'-benzimidazolylthio)-5-(2"-(5"-methoxybenzimidazolyl)thio)pentane], the activity at 5 µM in data set [1] (Table 3) came out at 39%. Moreover, in data set [2] (Table 3), the Cytotoxicity result is “Not observed”.

On to `CC1=CC(C)(C)NC(SCCCCCSc2nc3ccccc3[nH]2)=N1` [Compound B55], for which the activity at 5 µM in data set [1] (Table 4) was 52%. Besides, the Cytotoxicity result in data set [2] (Table 4) is listed as “Not observed”.

As for `COc1ccc2[nH]c(SCCCCCSc3ccccn3)nc2c1` [Compound B34], in data set [1] (Table 4), the activity at 5 µM worked out at 37%. For the same molecule, the Cytotoxicity result in data set [2] (Table 4) is on record as “Not observed”.

Take `CCOC(=O)c1ccc2[nH]c(SCCCCCSc3nc4ccccc4[nH]3)nc2c1` [Compound A9, 1-(2'-(5'-ethoxycarbonylbenzimidazolyl)thio)-5-(2"-benzimidazolylthio)pentane]: the activity at 5 µM in data set [1] (Table 3) turned out to be 28%. Also, the Cytotoxicity entry in data set [2] (Table 3) was “Not observed”.
